Experimental data reported in US11414416B1, “Compounds and uses thereof” (Foghorn Therapeutics Inc., priority 2019, dated 2022).

These compounds were tested against Nanoluciferase-BRD9 fusion protein (Homo sapiens (Human), UniProt Q9H8M2) (assay: SYO1 BRD9 NanoLuc degradation assay). Settings: Table 5A; SYO-1 cells expressing 3×FLAG-NLuc-BRD9, 6 hours; read-out: SYO1 BRD9-NanoLuc degradation IC50.
Assay type: cell-based
Description: Procedure: A stable SYO-1 cell line expressing 3×FLAG-NLuc-BRD9 was generated. On day 0 cells were seeded in 30 μL media into each well of 384-well cell culture plates. The seeding density was 8000 cells/well. […] Subsequently plates were incubated for 6 hours in a standard tissue culture incubator and equilibrated at room temperature for 15 minutes. Nanoluciferase activity was measured by adding 15 μL of freshly prepared Nano-Glo Luciferase Assay Reagent (Promega N1130), shaking the plates for 10 minutes and reading the bioluminescence using an EnVision reader.
DMSO treated cells are employed as High Control (HC) and 1 μM of a known BRD9 degrader standard treated cells are employed as Low Control (LC).

Nanoluciferase-BRD9 fusion protein, sequence (Q9H8M2 whole entry, the tested form may be a part): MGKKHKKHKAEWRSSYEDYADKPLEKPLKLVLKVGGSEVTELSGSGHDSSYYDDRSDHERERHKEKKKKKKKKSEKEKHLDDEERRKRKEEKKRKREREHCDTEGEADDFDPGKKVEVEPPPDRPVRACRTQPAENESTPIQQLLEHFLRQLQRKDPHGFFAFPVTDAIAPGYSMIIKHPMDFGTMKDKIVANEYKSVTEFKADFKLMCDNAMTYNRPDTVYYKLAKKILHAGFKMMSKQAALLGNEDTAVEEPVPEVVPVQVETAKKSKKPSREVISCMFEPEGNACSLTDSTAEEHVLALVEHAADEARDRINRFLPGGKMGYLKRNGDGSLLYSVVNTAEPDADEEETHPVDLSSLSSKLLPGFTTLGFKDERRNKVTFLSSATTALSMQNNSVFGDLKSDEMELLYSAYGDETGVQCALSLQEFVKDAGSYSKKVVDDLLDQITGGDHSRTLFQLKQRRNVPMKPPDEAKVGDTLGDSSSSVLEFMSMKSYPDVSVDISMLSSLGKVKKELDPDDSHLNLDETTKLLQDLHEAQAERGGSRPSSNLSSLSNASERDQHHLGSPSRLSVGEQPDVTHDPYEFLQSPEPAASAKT

Compound | DC50 [nM]
COc1cc(-c2cn(C)c(=O)c3cnccc23)cc(OC)c1CN1CC[C@H]1C(=O)NCCCCCCCCNc1cccc2c1C(=O)N([C@@H]1CCC(=O)NC1=O)C2=O (stereo in doubt) [Compound D18, (2S)-1-((2,6-dimethoxy-4-(2-methyl-1-oxo-2,7-naphthyridin-4-yl)phenyl)methy)-N-(8-((2-((R)-2,6-dioxopiperidin-3-yl)-1,3-dioxoisoindol-4-yl)amino)octyl) azetidine-2-carboxamide] | < 10
COc1cc(-c2cc(C)c(=O)n(C)c2)cc(OC)c1CN1CC(C(=O)NCCCCCCCCNc2cccc3c2C(=O)N(C2CCC(=O)NC2=O)C3=O)C1 (stereo not shown) [Compound D16, 2-(2,6-dihydroxypiperidin-3-yl)-4-[(8-[[hydroxy(1-[[4-(6-hydroxy-1,5-dimethyl-1,6-dihydropyridin-3-yl)-2,6-dimethoxyphenyl]methyl]azetidin-3-yl)methyl]amino]octyl)amino]-2,3-dihydro-1H-isoindole-1,3-diol formic acid] | < 10
COc1cc(-c2cn(C)c(=O)c3cnccc23)cc(OC)c1CN1CC[C@H]1C(=O)NCCCCCCCCNc1cccc2c1C(=O)N([C@H]1CCC(=O)NC1=O)C2=O [Compound D19, (2S)-1-((2,6-dimethoxy-4-(2-methyl-1-oxo-2,7-naphthyridin-4-yl)phenyl)methyl)-N-(8-((2-((S)-2,6-dioxopiperidin-3-yl)-1,3-dioxoisoindol-4-yl)amino)octyl) azetidine-2-carboxamide] | < 10
COc1cc(-c2cn(C)c(=O)c3cnccc23)cc(OC)c1CN1CC2(CC(C(=O)NCCCCCCCCNc3cccc4c3C(=O)N(C3CCC(=O)NC3=O)C4=O)C2)C1 (stereo not shown) [Compound D20] | < 10
COc1cc(-c2cn(C)c(=O)c3cnccc23)cc(OC)c1CN1CC(S(=O)(=O)NCCN2CCN(c3ccc4c(c3)C(=O)N(C3CCC(=O)NC3=O)C4=O)CC2)C1 (stereo not shown) [Compound D24, 1-[[2,6-dimethoxy-4-(2-methyl-1-oxo-2,7-naphthyridin-4-yl)phenyl]methyl]-N-(2-[4-[2-(2,6-dioxopiperidin-3-yl)-1,3-dioxoisoindol-5-yl]piperazin-1-yl]ethyl)azetidine-3-sulfonamide formic acid] | 10 to 100
COc1cc(-c2cn(C)c(=O)c3cnccc23)cc(OC)c1CN1CCC(CCN2CCN(c3ccc4c(c3)C(=O)N(C3CCC(=O)NC3=O)C4=O)CC2)CC1 (stereo not shown) [Compound D42, 5-(4-(2-(1-(2,6-dimethoxy-4-(2-methyl-1-oxo-1,2-dihydro-2,7-naphthyridin-4-yl)benzyl)piperidin-4-yl)ethyl)piperazin-1-yl)-2-(2,6-dioxopiperidin-3-yl)isoindoline-1,3-dione formic acid] | < 10
COc1cc(-c2cn(C)c(=O)c3cnccc23)cc(OC)c1CN1CCN(CCCCCOc2ccc3c(c2)C(=O)N(C2CCC(=O)NC2=O)C3=O)CC1 (stereo not shown) [Compound D44, 5-((5-(4-(2,6-dimethoxy-4-(2-methyl-1-oxo-1,2-dihydro-2,7-naphthyridin-4-yl)benzyl)piperazin-1-yl)pentyl)oxy)-2-(2,6-dioxopiperidin-3-yl)isoindoline-1,3-dione formic acid] | < 10
COc1cc(-c2cn(C)c(=O)c3cnccc23)cc(OC)c1CN(C)CCOCCN1CCN(c2ccc3c(c2)C(=O)N(C2CCC(=O)NC2=O)C3=O)CC1 (stereo not shown) [Compound D46, 5-(4-(2-(2-((2,6-dimethoxy-4-(2-methyl-1-oxo-1,2-dihydro-2,7-naphthyridin-4-yl)benzyl)(methyl)amino)ethoxy)ethyl)piperazin-1-yl)-2-(2,6-dioxopiperidin-3-yl)isoindoline-1,3-dione formic acid] | < 10
COc1cc(-c2cn(C)c(=O)c3cnccc23)cc(OC)c1CN1CCC2(CC1)CN(CCCCCOc1ccc3c(c1)C(=O)N(C1CCC(=O)NC1=O)C3=O)CCO2 (stereo not shown) [Compound D47, 5-[[5-(9-[[2,6-dimethoxy-4-(2-methyl-1-oxo-2,7-naphthyridin-4-yl)phenyl]methyl]-1-oxa-4,9-diazaspiro[5.5]undecan-4-yl)pentyl]oxy]-2-(2,6-dioxopiperidin-3-yl)isoindole-1,3-dione formic acid] | < 10
COc1cc(-c2cn(C)c(=O)c3cnccc23)cc(OC)c1CN1CC2(CC(CCOc3ccc4c(c3)C(=O)N(C3CCC(=O)NC3=O)C4=O)C2)C1 (stereo not shown) [Compound D48, 5-(2-(2-(2,6-dimethoxy-4-(2-methyl-1-oxo-1,2-dihydro-2,7-naphthyridin-4-yl)benzyl)-2-azaspiro[3.3]heptan-6-yl)ethoxy)-2-(2,6-dioxopiperidin-3-yl)isoindoline-1,3-dione formic acid] | 10 to 100
COc1cc(-c2cn(C)c(=O)c3cnccc23)cc(OC)c1CN1CCC2(CC1)CN(CCOc1ccc3c(c1)C(=O)N(C1CCC(=O)NC1=O)C3=O)CCO2 (stereo not shown) [Compound D49, 5-[2-(9-[[2,6-dimethoxy-4-(2-methyl-1-oxo-2,7-naphthyridin-4-yl)phenyl]methyl]-1-oxa-4,9-diazaspiro[5.5]undecan-4-yl)ethoxy]-2-(2,6-dioxopiperidin-3-yl)isoindole-1,3-dione] | > 1000
COc1cc(-c2cn(C)c(=O)c3cnccc23)cc(OC)c1CN1CCC2(CC1)CN(CCCCOc1ccc3c(c1)C(=O)N(C1CCC(=O)NC1=O)C3=O)CCO2 (stereo not shown) [Compound D50, 5-(4-(9-(2,6-dimethoxy-4-(2-methyl-1-oxo-1,2-dihydro-2,7-naphthyridin-4-yl)benzyl)-1-oxa-4,9-diazaspiro[5.5]undecan-4-yl)butoxy)-2-(2,6-dioxopiperidin-3-yl)isoindoline-1,3-dione] | < 10
COc1cc(-c2cn(C)c(=O)c3cnccc23)cc(OC)c1CN(C)C1CCN(CCOc2ccc3c(c2)C(=O)N(C2CCC(=O)NC2=O)C3=O)CC1 (stereo not shown) [Compound D51, 5-[2-[4-([[2,6-dimethoxy-4-(2-methyl-1-oxo-2,7-naphthyridin-4-yl)phenyl]methyl] (methyl)amino)piperidin-1-yl]ethoxy]-2-(2,6-dioxopiperidin-3-yl)isoindole-1,3-dione; formic acid] | < 10
COc1cc(-c2cn(C)c(=O)c3cnccc23)cc(OC)c1CN1CC(CC(=O)N2CCC3(CC2)CN(c2ccc4c(c2)C(=O)N(C2CCC(=O)NC2=O)C4=O)C3)C1 (stereo not shown) [Compound D76] | < 10

Other lines, results leading:

DC50 [nM] | Compound
< 10 | COc1cc(-c2cn(C)c(=O)c3cnccc23)cc(OC)c1CN1CC(N)(C(=O)NCCCCCCCCNc2cccc3c2C(=O)N(C2CCC(=O)NC2=O)C3=O)C1 (stereo not shown) [Compound D17, 3-amino-1-[[2,6-dimethoxy-4-(2-methyl-1-oxo-1,2-dihydro-2,7-naphthyridin-4-yl)phenyl]methyl]-N-(8-[[2-(2,6-dioxopiperidin-3-yl)-1,3-dioxo-2,3-dihydro-1H-isoindol-4-yl]amino]octyl)azetidine-3-carboxamide]
> 1000 | COc1cc(-c2cn(C)c(=O)c3cnccc23)cc(OC)c1CN1CC2(CC(C(=O)NCCCCCCNc3cccc4c3C(=O)N(C3CCC(=O)NC3=O)C4=O)C2)C1 (stereo not shown) [Compound D21]
10 to 100 | COc1cc(-c2cn(C)c(=O)c3cnccc23)cc(OC)c1CN1CC(S(=O)(=O)NCCCCNc2ccc3c(c2)C(=O)N(C2CCC(=O)NC2=O)C3=O)C1 (stereo not shown) [Compound D22, 1-[[2,6-dimethoxy-4-(2-methyl-1-oxo-1,2-dihydro-2,7-naphthyridin-4-yl)phenyl]methyl]-N-(4-[[2-(2,6-dioxopiperidin-3-yl)-1,3-dioxo-2,3-dihydro-1H-isoindol-5-yl]amino]butyl) azetidine-3-sulfonamide formic acid]
100 to 1000 | COc1cc(-c2cn(C)c(=O)c3cnccc23)cc(OC)c1CN1CC(N(C)Cc2cccc3c2C(=O)N(C2CCC(=O)NC2=O)C3=O)C1 (stereo not shown) [Compound D28, 4-(((1-(2,6-dimethoxy-4-(2-methyl-1-oxo-1,2-dihydro-2,7-naphthyridin-4-yl)benzyl)azetidin-3-yl)(methyl)amino)methyl)-2-(2,6-dioxopiperidin-3-yl)isoindoline-1,3-dione]
10 to 100 | COc1cc(-c2cn(C)c(=O)c3cnccc23)cc(OC)c1CN1CC(C(=O)N(C)Cc2cccc3c2C(=O)N(C2CCC(=O)NC2=O)C3=O)C1 (stereo not shown) [Compound D29, 1-(2,6-dimethoxy-4-(2-methyl-1-oxo-1,2-dihydro-2,7-naphthyridin-4-yl)benzyl)-N-((2-(2,6-dioxopiperidin-3-yl)-1,3-dioxoisoindolin-4-yl)methyl)-N-methylazetidine-3-carboxamide]
100 to 1000 | COc1cc(-c2cn(C)c(=O)c3cnccc23)cc(OC)c1CN1CC2(CN(CCOc3ccc4c(c3)C(=O)N(C3CCC(=O)NC3=O)C4=O)C2)C1 (stereo not shown) [Compound D43, 5-[2-(6-[[2,6-Dimethoxy-4-(2-methyl-1-oxo-2,7-naphthyridin-4-yl)phenyl]methyl]-2,6-diazaspiro[3.3]heptan-2-yl)ethoxy]-2-(2,6-dioxopiperidin-3-yl)isoindole-1,3-dione formic acid]
< 10 | COc1cc(-c2cn(C)c(=O)c3cnccc23)cc(OC)c1CN1CC(S(=O)(=O)NCCOCCNc2cccc3c2C(=O)N(C2CCC(=O)NC2=O)C3=O)C1 (stereo not shown) [Compound D45, 1-[[2,6-dimethoxy-4-(2-methyl-1-oxo-2,7-naphthyridin-4-yl)phenyl]methyl]-N-[2-(2-[[2-(2,6-dioxopiperidin-3-yl)-1,3-dioxoisoindol-4-yl]amino]ethoxy)ethyl]azetidine-3-sulfonamide]
10 to 100 | COc1cc(-c2cn(C)c(=O)c3cnccc23)cc(OC)c1CN1CC(OCc2cn(CCOc3ccc4c(c3)C(=O)N(C3CCC(=O)NC3=O)C4=O)nn2)C1 (stereo not shown) [Compound D61, 5-(2-(4-(((1-(2,6-dimethoxy-4-(2-methyl-1-oxo-1,2-dihydro-2,7-naphthyridin-4-yl)benzyl)azetidin-3-yl)oxy)methyl)-1H-1,2,3-triazol-1-yl)ethoxy)-2-(2,6-dioxopiperidin-3-yl)isoindoline-1,3-dione]
